Patent US20250277272A1, “CANCER TREATMENTS AND METHODS OF SELECTING SAME” (The General Hospital Corporation, priority 2016, published 2025)

Tests used:
[1] = tested on: BRAF-mutant melanoma cells; experiment: BRAFi sensitivity after STAG3 knockdown (cell viability and ERK inhibition); type: cell-based; conditions: knockdown of STAG3
[2] = tested on: SKMEL28, A375 and M14 cells; experiment: Sensitivity of cells with inducible STAG2 shRNA to BRAFi (viability, Western blot); type: cell-based; conditions: inducible expression of an independent shRNA targeting STAG2
Experimental: (§1) FIGS. 2A-2H. Knock-down of STAG2 or STAG3 decreases BRAFi sensitivity in BRAF-mutant melanoma cells. FIG. 2A, Viability of A375 cells expressing cither a scrambled control shRNA or a STAG2-specific shRNA (shSTAG2 #23), after treatment with varying concentrations of dabrafenib (Dab) for 3 d. Experiment was performed three times. Data are mean±s.e.m. shSTAG2 #23 sequence: […] TTTG; SEQ ID NO. 1) scramble control shRNA sequence: ([…]: SEQ ID NO. 2) FIG. 2B, Representative Western blot analysis of A375 cells that were treated with dabrafenib for 2 hr. Experiment was performed three times. FIG. 2C, Viability of SKMEL28 cells expressing an inducible STAG2-specific shRNA (shStag2 #60; […]: SEQ ID NO. 3) and cultured in the presence (+Dox) or absence (−Dox) of doxycycline after treatment with varying concentrations of vemurafenib (VEM) for 3 d. Experiment was performed three times. FIG. 2D, Representative Western blot analysis of SKMEL30 cells that were treated with vemurafenib for 2 hr. FIG. 2E, Viability of A375 cells expressing either a scrambled control shRNA or a STAG3-specific shRNA (shSTAG3 #96), after treatment with varying concentrations of dabrafenib for 3 days. Experiment was performed 3 times. Data are mean±s.e.m. […]

[3] = tested on: ERK phosphorylation; experiment: Western blot of p-ERK in A375 cells with STAG2 and/or STAG3 knockdown; type: cell-based; conditions: 2 hr treatment
Experimental: as §1

[4] = tested on: A375 cells; experiment: MTS cell viability assay, A375 cells with STAG2 knockdown; type: cell-based; conditions: A375 cells expressing STAG2-specific shRNA vs scrambled control shRNA; 3 d
Experimental: FIGS. 2A-2H. […] FIG. 2A, Viability of A375 cells expressing cither a scrambled control shRNA or a STAG2-specific shRNA (shSTAG2 #23), after treatment with varying concentrations of dabrafenib (Dab) for 3 d. Experiment was performed three times. Data are mean±s.e.m. shSTAG2 #23 sequence: […] TTTG; SEQ ID NO. […] 2) FIG. 2B, Representative Western blot analysis of A375 cells that were treated with dabrafenib for 2 hr. Experiment was performed three times. […] Experiment was performed three times. FIG. 2D, Representative Western blot analysis of SKMEL30 cells that were treated with vemurafenib for 2 hr. […] Experiment was performed 3 times. Data are mean±s.e.m. […] Experiment was performed three times. […] Experiment was performed three times. […] Experiment was performed three times.
Experiment was performed 3 times. Data are mean±s.e.m. […] Experiment was performed three times. […] Experiment was performed three times. […] Experiment was performed 3 times. Data are mean±s.e.m. […] Experiment was performed three times. […] Experiment was performed three times. […] Experiment was performed 3 times. […] Experiment was performed 3 times. Data are mean±s.e.m. […] Experiment was performed 3 times.

[5] = tested on: M14 or SKMEL28 melanoma cells; experiment: MTS assay with the ERK inhibitor, cells with inducible Stag2 knockdown; type: cell-based; conditions: doxycycline-induced shStag2 #60; 3 days
Experimental: M14 (FIG. 12A) or SKMEL28 (FIG. 12B) melanoma cells expressing pTRIPZ-shStag2 #60 were cultured in the presence or absence of doxycycline (Doxy) for 5 days to induce the expression of Stag2 shRNAs and treated with various concentrations of ERK inhibitor SCH772984 for 3 days, before MTS assays were performed.
(§2) Cell culture: All melanoma cell lines used in this study contain BRAF^Val600Glu mutations, except as otherwise indicated. A375 and SKMEL28 cells were purchased from the American Type Culture Collection (ATCC). LOX-IVMI cells were obtained from the Division of Cancer Treatment and Diagnosis. National Cancer Institute. (NCI-DCTD) repository. WM902, WM902-BR, WM983, WM983-BR and MEL1617 cell lines were obtained from Dr. Meenhard Herlyn (Wistar Institute). Immortalized Braf-null mouse embryonic fibroblasts (MEFs) were a gift from Dr. Catrin Pritchard (University of Leicester)^38. 501MEL and SKMEL103 cells, harboring NRAS mutations, were gifts from Dr. Lynda Chin (MD Anderson Cancer Center) and Dr. Jonathon Zippin (Weill Cornell Medical College), respectively. These cell lines were not authenticated by the inventors. WM902, WM983, M14, MEL1617, SKMEL28, A375, LOX-IVMI, 501MEL and SKMEL103 cells were cultured in RPMI containing 10% FBS (FBS) and penicillin-streptomycin-glutamine (PSG). […]

[6] = tested on: WM902BR cells; experiment: MTS assay with the ERK inhibitor, WM902 (Stag2 WT) and WM902BR (Stag2 mutant); type: cell-based; conditions: 3 days, two independent experiments
Experimental: Both WM902 (Stag2 WT) and WM902BR (Stag2 mutant) were treated with various concentrations of ERK inhibitor SCH772984 for 3 days, before MTS assays were performed. Data were from two independent experiments: Experiment A (FIG. 11A) and Experiment B (FIG. 11B).
as §2, with “(PSG). HEK293 and MEF cells were maintained in Dulbecco's modified Eagle's medium (DMEM) containing 10% FBS and PSG.” for “(PSG).”

[7] = tested on: melanoma; experiment: Melanoma patient treated with BRAFi, relapse; type: in vivo, human; conditions: one melanoma patient who relapsed
Text: This mutation in STAG2 gene (c.577G>A, resulting in Asp193Asn) was subsequently confirmed by Sanger sequencing. Although the pretreatment sample contains trace amounts of the mutated allele, it is greatly enriched in the post-relapse sample (FIG. 1A). STAG2 (also known as SA2) encodes a core subunit in the cohesin complex that regulates cohesion and segregation of sister chromatids^11,12. […] Stag2 has two other paralogs in mammals, Stag1 and Stag3. […] Sanger sequencing was subsequently performed for all coding exons of STAG2 and STAG3 genes in these cell line pairs and identified a STAG2 nonsense mutation (c.3247A>T, resulting in a change of Lys1083 to a stop codon (Lys1083*)) in WM902BR cells, which was not present in the parental WM902 cells (FIG. 6A). No mutations in STAG3 were identified in this cell line panel. […] STAG3 mutations were detected in post-relapse, but not pre-treatment, samples from an additional six patients from this study (Table 2).
Patient samples and immunohistochemistry (IHC): Patients with metastatic melanoma containing BRAF^Val600 mutations (confirmed by genotyping) were enrolled in clinical trials testing treatment with a BRAF inhibitor alone or in combination with a MEK inhibitor. […] Formalin-fixed tissue was analyzed to confirm that viable tumor was present, using hematoxylin and eosin (H&E) staining. […]

In the case of CC(C)(C)c1nc(-c2cccc(NS(=O)(=O)c3c(F)cccc3F)c2F)c(-c2ccnc(N)n2)s1 [dabrafenib], the “sensitivity with regard to cell viability and ERK inhibition” value [1] is reported as “decreased sensitivity”, the “sensitivity of cells to BRAFi” value [2] is reported as “decreased the sensitivity” and the “ability to inhibit ERK phosphorylation” value [3] is reported as “reduction in the ability”. The “sensitivity in cell viability assay (MTS)” value [4] was “lower sensitivity”.

With O=C(Nc1ccc2[nH]nc(-c3ccncc3)c2c1)[C@@H]1CCN(CC(=O)N2CCN(c3ccc(-c4ncccn4)cc3)CC2)C1 [SCH772984] the “effect of Stag2 knockdown on sensitivities in MTS assay” value [5] was “does not affect their sensitivities” and the “sensitivity of cells in MTS assay” value [6] was “sensitive to inhibition”.

With CCCS(=O)(=O)Nc1ccc(F)c(C(=O)c2c[nH]c3ncc(-c4ccc(Cl)cc4)cc23)c1F [vemurafenib] the time-to-disease-progression [7] was 5 months.
